From US10407430B2, “Janus kinase 1 selective inhibitor and pharmaceutical use thereof” (YANG JI CHEMICAL CO., LTD., priority 2015, dated 2019)
Where a name gives a salt, the structure may show the parent alone. Read-outs that look alike come from different tables or passages of the source.

How the values were obtained:
[1] = molecular target: T1, Human JAK1 (Homo sapiens, UniProt P23458); assay: In-vitro kinase inhibition test, JAK1; type: biochemical; settings: for inhibition at 1 µM: compound at 1 uM, read-out: JAK1 kinase-phosphorylation inhibitory level (% inhibition); for JAK1/JAK2: ratio of % inhibition of JAK1 to JAK2 at 1 uM
T1 construct: purchased Millipore, Germany
T1 sequence (P23458 whole entry): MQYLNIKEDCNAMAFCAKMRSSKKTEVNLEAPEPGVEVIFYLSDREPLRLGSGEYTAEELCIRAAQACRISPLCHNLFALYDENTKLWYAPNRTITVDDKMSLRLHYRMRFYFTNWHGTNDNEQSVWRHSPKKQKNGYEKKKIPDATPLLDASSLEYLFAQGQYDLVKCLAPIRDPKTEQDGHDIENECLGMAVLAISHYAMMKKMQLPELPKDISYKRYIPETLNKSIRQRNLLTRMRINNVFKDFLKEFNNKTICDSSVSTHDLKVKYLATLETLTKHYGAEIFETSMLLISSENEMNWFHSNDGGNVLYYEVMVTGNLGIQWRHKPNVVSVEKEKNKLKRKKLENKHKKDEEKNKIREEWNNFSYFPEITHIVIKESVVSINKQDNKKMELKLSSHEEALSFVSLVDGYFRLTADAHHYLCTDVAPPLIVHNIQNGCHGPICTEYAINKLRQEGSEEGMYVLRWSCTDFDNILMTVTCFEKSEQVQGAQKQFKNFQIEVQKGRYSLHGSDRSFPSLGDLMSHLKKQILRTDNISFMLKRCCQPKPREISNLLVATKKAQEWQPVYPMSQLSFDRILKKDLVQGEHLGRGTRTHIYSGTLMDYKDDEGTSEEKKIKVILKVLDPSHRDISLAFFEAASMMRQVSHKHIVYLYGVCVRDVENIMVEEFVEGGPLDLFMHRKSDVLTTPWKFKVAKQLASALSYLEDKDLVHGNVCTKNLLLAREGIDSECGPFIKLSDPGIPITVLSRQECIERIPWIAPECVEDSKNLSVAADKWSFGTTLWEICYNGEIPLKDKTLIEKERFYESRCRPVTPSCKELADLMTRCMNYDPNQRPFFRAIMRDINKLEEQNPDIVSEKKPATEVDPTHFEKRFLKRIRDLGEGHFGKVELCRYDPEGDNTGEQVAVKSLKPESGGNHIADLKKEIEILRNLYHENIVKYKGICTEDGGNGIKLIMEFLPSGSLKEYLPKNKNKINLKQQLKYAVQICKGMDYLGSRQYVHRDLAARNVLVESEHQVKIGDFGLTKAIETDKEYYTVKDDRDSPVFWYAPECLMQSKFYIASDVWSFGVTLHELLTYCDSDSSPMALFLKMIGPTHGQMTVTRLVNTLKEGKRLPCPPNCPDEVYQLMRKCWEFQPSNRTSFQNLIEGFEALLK

[2] = molecular target: T2, Human JAK2 (Homo sapiens, UniProt O60674); assay: In-vitro kinase inhibition test, JAK2; type: biochemical; settings: compound at 1 uM; read-out: JAK2 kinase-phosphorylation inhibitory level (% inhibition)
T2 construct: purchased Millipore, Germany
T2 sequence (O60674 whole entry): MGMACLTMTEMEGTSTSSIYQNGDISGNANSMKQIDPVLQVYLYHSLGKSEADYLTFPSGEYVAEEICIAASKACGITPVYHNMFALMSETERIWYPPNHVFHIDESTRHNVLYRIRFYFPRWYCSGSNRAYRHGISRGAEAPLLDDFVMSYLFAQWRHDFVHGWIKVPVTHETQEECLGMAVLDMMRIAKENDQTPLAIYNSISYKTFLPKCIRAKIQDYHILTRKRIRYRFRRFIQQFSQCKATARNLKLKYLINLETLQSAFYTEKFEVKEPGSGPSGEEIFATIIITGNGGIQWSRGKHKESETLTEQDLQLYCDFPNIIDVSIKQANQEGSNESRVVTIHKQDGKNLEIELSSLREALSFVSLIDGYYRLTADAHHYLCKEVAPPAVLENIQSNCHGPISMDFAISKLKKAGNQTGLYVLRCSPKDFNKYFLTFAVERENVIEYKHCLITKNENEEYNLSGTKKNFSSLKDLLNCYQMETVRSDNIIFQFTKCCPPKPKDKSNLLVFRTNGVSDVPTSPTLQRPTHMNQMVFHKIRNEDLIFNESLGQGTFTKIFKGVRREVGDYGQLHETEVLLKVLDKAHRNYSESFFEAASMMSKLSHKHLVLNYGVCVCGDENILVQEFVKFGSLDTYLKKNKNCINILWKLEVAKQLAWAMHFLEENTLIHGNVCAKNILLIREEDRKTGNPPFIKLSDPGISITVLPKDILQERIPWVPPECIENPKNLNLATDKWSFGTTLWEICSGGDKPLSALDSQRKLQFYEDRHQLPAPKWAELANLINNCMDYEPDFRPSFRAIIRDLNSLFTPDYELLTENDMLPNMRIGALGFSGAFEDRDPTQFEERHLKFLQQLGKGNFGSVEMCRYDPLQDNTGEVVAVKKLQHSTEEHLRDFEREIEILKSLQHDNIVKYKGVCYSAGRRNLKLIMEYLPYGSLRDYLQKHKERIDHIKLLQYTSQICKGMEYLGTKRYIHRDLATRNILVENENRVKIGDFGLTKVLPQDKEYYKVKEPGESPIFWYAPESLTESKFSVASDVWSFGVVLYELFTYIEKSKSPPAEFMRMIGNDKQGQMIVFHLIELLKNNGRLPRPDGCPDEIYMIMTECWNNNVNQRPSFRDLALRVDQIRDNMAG
Procedure: (§1) Human-derived JAK1, JAK2, JAK3 and TYK2 (Millipore, Germany) were used as kinases. Each kinase was diluted with an appropriate buffer as described below, and then mixed with reaction reagents.
(§2) 3-morpholinopropane-1-sulfonic acid (MOPS) and EDTA were dissolved in deionized water at a concentration of 20 mM and 1 mM, respectively, and then 100 μL of β-mercaptoethanol, 10 μL of Brij-35™, 5 mL of glycerol, and 100 mg of bovine serum albumin (BSA), each per 100 mL of the solution, were added to the solution, thereby preparing a dilution buffer for JAK2, JAK3, and TYK2.
(§3) Each compound was dissolved in a 100%-DMSO solution at a concentration of about 50 μM. This prepared solution was reacted with reaction reagents in each well of a 96-well plate until a final concentration of the compound reached 1 μM. A detailed experimental method for each kinase is as follows.
(§4) After reaction for about 40 minutes at room temperature, the reaction was stopped by adding 5 uL of a 3% (v/v) phosphoric acid solution.
(§5) The inhibitory levels (% inhibition) represent a percentage of reduction in phosphorylation activity in each test group with respect to the phosphorylation activity of a corresponding kinase in a negative control group lacking any of the compounds synthesized in the examples. % inhibition=[(Scintillation value of Test compound non-treatment group−Scintillation value of Test compound treatment group)/(Scintillation value of Test compound non-treatment group)]×100

[3] = molecular target: T3, Human JAK3 (Homo sapiens, UniProt P52333); assay: In-vitro kinase inhibition test, JAK3; type: biochemical; settings: compound at 1 uM; read-out: JAK3 kinase-phosphorylation inhibitory level (% inhibition)
T3 construct: purchased Millipore, Germany
T3 sequence (P52333 1-1124): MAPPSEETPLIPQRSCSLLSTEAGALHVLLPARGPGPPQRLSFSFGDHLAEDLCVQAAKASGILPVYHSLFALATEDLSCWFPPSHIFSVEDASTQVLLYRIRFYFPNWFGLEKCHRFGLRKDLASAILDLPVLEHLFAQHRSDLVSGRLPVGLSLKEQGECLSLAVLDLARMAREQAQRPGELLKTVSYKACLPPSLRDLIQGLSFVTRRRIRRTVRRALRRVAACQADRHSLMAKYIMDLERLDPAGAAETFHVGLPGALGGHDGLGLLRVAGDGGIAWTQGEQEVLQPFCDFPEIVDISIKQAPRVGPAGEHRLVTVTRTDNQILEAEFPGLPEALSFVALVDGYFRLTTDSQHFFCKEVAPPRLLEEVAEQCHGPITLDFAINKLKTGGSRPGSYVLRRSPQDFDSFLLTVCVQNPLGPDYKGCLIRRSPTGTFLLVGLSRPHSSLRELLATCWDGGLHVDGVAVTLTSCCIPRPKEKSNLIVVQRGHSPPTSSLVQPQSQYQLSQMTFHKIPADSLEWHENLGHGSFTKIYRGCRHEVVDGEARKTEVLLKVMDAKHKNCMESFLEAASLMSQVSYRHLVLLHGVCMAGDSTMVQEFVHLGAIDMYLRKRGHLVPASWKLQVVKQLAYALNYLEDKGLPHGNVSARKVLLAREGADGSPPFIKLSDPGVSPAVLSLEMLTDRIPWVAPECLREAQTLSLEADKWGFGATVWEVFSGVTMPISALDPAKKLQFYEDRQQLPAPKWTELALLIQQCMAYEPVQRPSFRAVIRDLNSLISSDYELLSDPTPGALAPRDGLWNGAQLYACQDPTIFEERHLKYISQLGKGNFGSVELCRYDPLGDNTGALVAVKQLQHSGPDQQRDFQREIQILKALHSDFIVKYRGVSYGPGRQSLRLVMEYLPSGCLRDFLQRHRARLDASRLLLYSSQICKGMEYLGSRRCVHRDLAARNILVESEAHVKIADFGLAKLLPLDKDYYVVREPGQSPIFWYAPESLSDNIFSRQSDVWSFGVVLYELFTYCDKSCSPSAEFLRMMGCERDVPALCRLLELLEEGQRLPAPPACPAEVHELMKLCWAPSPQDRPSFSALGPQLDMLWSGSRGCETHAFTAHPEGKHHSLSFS

[4] = molecular target: T4, Human TYK2 (Homo sapiens, UniProt P29597); assay: In-vitro kinase inhibition test, TYK2; type: biochemical; settings: read-out: TYK2 kinase-phosphorylation inhibitory level (% inhibition)
T4 construct: purchased Millipore, Germany
T4 sequence (P29597 whole entry): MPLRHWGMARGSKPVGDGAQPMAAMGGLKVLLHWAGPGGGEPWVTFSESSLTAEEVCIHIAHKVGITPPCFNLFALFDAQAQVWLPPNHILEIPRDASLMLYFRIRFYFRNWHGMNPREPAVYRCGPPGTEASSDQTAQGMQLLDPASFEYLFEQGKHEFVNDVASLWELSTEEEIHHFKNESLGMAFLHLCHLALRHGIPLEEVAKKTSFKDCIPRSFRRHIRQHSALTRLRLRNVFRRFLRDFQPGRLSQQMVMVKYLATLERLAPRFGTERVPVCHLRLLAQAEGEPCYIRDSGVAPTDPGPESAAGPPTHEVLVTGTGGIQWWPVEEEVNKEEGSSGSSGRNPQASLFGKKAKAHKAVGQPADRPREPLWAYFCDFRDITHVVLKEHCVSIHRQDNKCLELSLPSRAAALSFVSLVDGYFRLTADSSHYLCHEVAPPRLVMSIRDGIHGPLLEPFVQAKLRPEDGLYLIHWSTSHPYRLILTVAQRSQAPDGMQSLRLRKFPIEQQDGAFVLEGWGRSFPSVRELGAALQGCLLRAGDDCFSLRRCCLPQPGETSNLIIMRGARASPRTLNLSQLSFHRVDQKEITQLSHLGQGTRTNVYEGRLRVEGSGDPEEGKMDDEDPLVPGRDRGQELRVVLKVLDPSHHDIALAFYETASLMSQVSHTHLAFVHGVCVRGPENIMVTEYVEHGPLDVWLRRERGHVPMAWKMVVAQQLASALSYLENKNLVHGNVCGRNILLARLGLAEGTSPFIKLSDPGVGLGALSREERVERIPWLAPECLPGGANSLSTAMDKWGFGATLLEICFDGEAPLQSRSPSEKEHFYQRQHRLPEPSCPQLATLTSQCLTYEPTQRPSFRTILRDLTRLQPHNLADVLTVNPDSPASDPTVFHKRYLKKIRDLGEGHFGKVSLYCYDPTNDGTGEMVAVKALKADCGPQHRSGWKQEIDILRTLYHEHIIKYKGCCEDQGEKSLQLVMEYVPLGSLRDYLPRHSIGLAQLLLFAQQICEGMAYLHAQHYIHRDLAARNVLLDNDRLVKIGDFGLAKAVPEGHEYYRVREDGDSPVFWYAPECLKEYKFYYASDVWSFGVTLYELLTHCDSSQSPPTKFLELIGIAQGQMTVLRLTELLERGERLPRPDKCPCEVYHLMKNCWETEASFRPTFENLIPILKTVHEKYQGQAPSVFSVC
Procedure: as §1, §2, §3, §4, §5

[5] = Pharmacokinetic test, oral or intravenous administration; type: in vivo; settings: mouse, blood, 20 mg/kg, mice
Procedure: A dose of the compound was about 20 mg/kg, which was orally or intraveneously administered one time, followed by blood collection from the jugular veins of three mice at each of blood sampling intervals, i.e., 0, 0.25 (15 min), 0.5 (30 min), 1, 2, 4, 6, 12, and 24 hours from the administration, and measuring a drug concentration.

[6] = comparative drug (EMA), cited from earlier work

Molecule C[C@@H]1CCN(S(=O)(=O)c2cccc(C#N)c2)C[C@@H]1N(C)c1ncnc2[nH]ccc12 [Example 42, 3-(((3R,4R)-4-methyl-3-(methyl(7H-pyrrolo[2,3-d]pyrimidine-4-yl)amino)piperidine-1-yl)sulfonyl)benzonitrile] has an inhibition at 1 µM [1] of 95%, a JAK1/JAK2 [1] of 1.20 and an inhibition at 1 µM [2] of 79%. It also gave an inhibition at 1 µM [3] of 89% and an inhibition at 1 µM ([4]; compound at 1 uM) of 86%.
Molecule CN(c1ncnc2[nH]ccc12)[C@H]1CN(C(=O)CC#N)CC1(C)C [Example 43, (R)-3-(3,3-dimethyl-4-(methyl(7H-pyrrolo[2,3-d]pyrimidine-4-yl)amino)pyrrolidine-1-yl)-3-oxopropanenitrile] has an inhibition at 1 µM [1] of 86%, a JAK1/JAK2 [1] of 4.53 and an inhibition at 1 µM [2] of 19%. It also gave an inhibition at 1 µM [3] of 36% and an inhibition at 1 µM ([4]; compound at 1 uM) of 38%.
In the case of CN(c1ncnc2[nH]ccc12)[C@@H]1CN(C(=O)CC#N)CC1(C)C [Example 44, (S)-3-(3,3-dimethyl-4-(methyl(7H-pyrrolo[2,3-d]pyrimidine-4-yl)amino)pyrrolidine-1-yl)-3-oxopropanenitrile], the inhibition at 1 µM [1] is reported as 26%, the JAK1/JAK2 [1] is reported as “∞” and the inhibition at 1 µM [2] is reported as -8%. For the same molecule, the inhibition at 1 µM [3] was 1% and the inhibition at 1 µM ([4]; compound at 1 uM) was -1%.
Work on N#CCC(=O)N1CCC(Oc2ncnc3[nH]ccc23)CC1 [Example 45, 3-(4-((7H-pyrrolo[2,3-d]pyrimidine-4-yl)oxy)piperidine-1-yl)-3-oxopropanenitrile] yielded an inhibition at 1 µM [1] of 35%, a JAK1/JAK2 [1] of 7.00 and an inhibition at 1 µM [2] of 5%. For the same molecule, the inhibition at 1 µM [3] was 14% and the inhibition at 1 µM ([4]; compound at 1 uM) was 10%.
In the case of N#CCC(=O)N1CCCC(COc2ncnc3[nH]ccc23)C1 (stereo not shown) [Example 47, 3-(3-(((7H-pyrrolo[2,3-d]pyrimidine-4-yl)oxy)methyl)piperidine-1-yl)-3-oxopropanenitrile], the inhibition at 1 µM [1] is reported as 30%, the JAK1/JAK2 [1] is reported as 3.00 and the inhibition at 1 µM [2] is reported as 10%. The inhibition at 1 µM [3] was 16% and the inhibition at 1 µM ([4]; compound at 1 uM) was 20%.
N#Cc1cccc(S(=O)(=O)N2CCCC(COc3ncnc4[nH]ccc34)C2)c1 (stereo not shown) [Example 48, 3-((3-(((7H-pyrrolo[2,3-d]pyrimidine-4-yl)oxy)methyl)piperidine-1-yl)sulfonyl)benzonitrile] showed an inhibition at 1 µM [1] of 25%, a JAK1/JAK2 [1] of 1.47 and an inhibition at 1 µM [2] of 17%. For the same molecule, the inhibition at 1 µM [3] was 19% and the inhibition at 1 µM ([4]; compound at 1 uM) was 7%.
For N#CCC(=O)N1C[C@H]2CCCN(c3ncnc4[nH]ccc34)[C@H]2C1 [Example 49, 3-((4aR,7aR)-1-(7H-pyrrolo[2,3-d]pyrimidine-4-yl)octahydro-6H-pyrrolo[3,4-b]pyridine-6-yl)-3-oxopropanenitrile], the inhibition at 1 µM [1] was 54%, the JAK1/JAK2 [1] was “∞” and the inhibition at 1 µM [2] was -7%. The inhibition at 1 µM [3] was 1% and the inhibition at 1 µM ([4]; compound at 1 uM) was 21%.
In the case of N#CCC(=O)N1C[C@@H]2CCCN(c3ncnc4[nH]ccc34)[C@@H]2C1 [Example 50, 3-((4aS,7aS)-1-(7H-pyrrolo[2,3-d]pyrimidine-4-yl)octahydro-6H-pyrrolo[3,4-b]pyridine-6-yl)-3-oxopropanenitrile], the inhibition at 1 µM [1] is reported as 14%, the JAK1/JAK2 [1] is reported as “∞” and the inhibition at 1 µM [2] is reported as -10%. It also gave an inhibition at 1 µM [3] of 1% and an inhibition at 1 µM ([4]; compound at 1 uM) of 6%.
Molecule CN(c1ncnc2[nH]ccc12)[C@@H]1CCN(C(=O)CC#N)C1.Cl [Example 51, (R)-3-(3-(methyl(7H-pyrrolo[2,3-d]pyrimidine-4-yl)amino)pyrrolidine-1-yl)-3-oxopropanenitrile hydrochloride] has an AUC(0-t) ([5]; intravenous injection) of 18900 ng·h/mL, a Cmax ([5]; intravenous injection) of 15500 ng/mL and a half-life ([5]; intravenous injection) of 1.97 h. It also gave an AUC(0-t) ([5]; oral administration) of 13100 ng·h/mL, a Cmax ([5]; oral administration) of 4530 ng/mL and a Tmax ([5]; oral administration) of 0.5 h. It also gave a bioavailability ([5]; oral administration) of 69.1% and a half-life ([5]; oral administration) of 2.78 h.
For CC1CCN(C(=O)CC#N)CC1N(C)c1ncnc2[nH]ccc12 (stereo not shown) [tofacitinib citrate, 3-{4-methyl-3-[methyl-(7H-pyrrolo[2,3-d]pyrimidine-4-yl)-amino]-piperidine-1-yl}-3-oxo-propionitrile], the inhibition at 1 µM [4] is given as 100%, the AUC0→t ([6]; intravenous injection, 5 mg/kg) is given as 3180 ng·h/mL and the t1/2 ([6]; intravenous injection, 5 mg/kg) is given as 2.8 h. The AUC0→t ([6]; oral administration, 10 mg/kg) was 2750 ng·h/mL, the Cmax ([6]; oral administration, 10 mg/kg) was 2400 ng/mL and the bioavailability ([6]; oral administration, 10 mg/kg) was 43.3%. The t1/2 ([6]; oral administration, 10 mg/kg) was 2.0 h.
